Assay results: US10111876B2, “ALK Kinase Inhibitor and its use” (Macau University of Science and Technology, priority 2016, dated 2018)

How the values were obtained:
[1] = molecular target: recombinant ALK kinase domain (Homo sapiens, UniProt Q9UM73); assay: LanthaScreen Eu Kinase Binding Assay, recombinant ALK kinase domain; details: room temperature, 1 h
Procedure: Enzymatic assay for recombinant ALK kinase domain was conducted using the LanthaScreen® Eu Kinase Binding Assays. LanthaScreen® Eu Kinase Binding Assays are based on the binding and displacement of a proprietary. The assay was performed at room temperature for 1 h in a total volume of 15 μL, including 5 μL of test compound, 5 μL of kinase/antibody mixture and 5 μL of tracer. After 1 h incubation, fluorescence was measured. The division of acceptor/tracer emission (665 nm) by the antibody/donor emission (615 nm) was used to calculate the emission ratio.

H2228 cells = assay: MTT cell viability assay, H2228 cells; format: cell-based; details: Homo sapiens, NCI-H2228, 72 h treatment
Procedure: (§1) H2228 and CCD19(Lu) cells were obtained from the American Type Culture Collection and cultured in an environment of 5% CO2 at 37° C. in RPMI-1640 mediums supplemented with 10% fetal bovine serum (FBS), 100 units/mL penicillin, and 100 μg/mL streptomycin.
(§2) Cell viability was determined by MTT assay. H2228 and CCD19 cells (3×10^3 cells/well) were seeded into a 96-well plate and treated with indicated concentrations of the compound of Formula (V) for 72 h. At the end of incubation, 10 μl MTT (0.5 mg/ml) (Sigma) was added to each well. After incubating for 4 h at 37° C., supernatants were removed and 150 μl of DMSO was added. The formazan crystals formed inside the viable cells were solubilized in DMSO and the OD was read with Microplate Reader (Epoch, Winooski, USA) at 570 nm. The IC50 value for the compound was determined by GraphPad Prim5.0 software. The experiments were performed three times with three replicates in each.

normal lung cells CCD19 = assay: MTT cell viability assay, normal lung cells CCD19; format: cell-based; details: 72 h treatment
Procedure: as §1, §2

recombinant ALK kinase domain, sequence (Q9UM73 1116-1392 limits assumed): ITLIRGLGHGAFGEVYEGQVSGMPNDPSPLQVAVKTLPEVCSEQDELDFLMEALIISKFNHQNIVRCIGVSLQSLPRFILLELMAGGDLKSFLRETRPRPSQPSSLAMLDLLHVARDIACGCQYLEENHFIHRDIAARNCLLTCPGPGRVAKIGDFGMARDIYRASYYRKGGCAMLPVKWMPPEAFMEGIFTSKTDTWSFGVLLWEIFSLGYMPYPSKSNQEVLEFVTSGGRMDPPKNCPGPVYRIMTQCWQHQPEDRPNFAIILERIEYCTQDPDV

EC50 [1]: 0.0196 µM
IC50 (H2228 cells): 4.11 ± 0.96 µM
SMILES: Cc1sc2nc3c4ccccc4c(NCCCN(C)C)nn3c(=O)c2c1C [Formula (V)]
IC50 (normal lung cells CCD19): 16.8 ± 2.04 µM
